{"source": "patent US20240410876A1", "about": "“EXTRACELLULAR VESICLE DRUG ANALYSIS FOR REAL-TIME MONITORING OF TARGETED THERAPY” (NATIONAL UNIVERSITY OF SINGAPORE, priority 2021, published 2024)", "key": {"H3255 cells": {"test_system": "H3255 cells", "test": "Anti-proliferation activity (MTS assay)", "format": "cell-based", "settings": "Homo sapiens, NCI-H3255; H3255 lung cancer cells, 72 hours", "method": "MTS assay. […] Cell viability was assessed using the [3-(4,5-dimethylthiazol-2-yl)-5-(3-carboxymethoxyphenyl)-2-(4-sulfophenyl)-2H-tetrazolium inner salt (MTS) cell proliferation assay (Promega)."}, "EGFR [1]": {"test_system": "EGFR", "test": "Multiplexed ExoSCOPE: drug occupancy in EVs secreted by drug-treated cells", "format": "cell-based, human", "settings": "heterogeneous cell mixture, 1 μM, within 24 hours, CD63/EGFR/EpCAM/MUC1 vesicle subpopulations", "quoted_text": "ExoSCOPE assay. We developed the ExoSCOPE assay for the direct analysis of both marker composition and drug occupancy in EVs. Samples were diluted 1:1 in PBS before ExoSCOPE analyses. We treated the diluted samples with click probe A3 (tagged with TCO, 100 nM) at 37° C. for 30 min before analysis. […] To measure EV marker composition (for a single marker analysis), we incubated the samples on antibody-functionalized ExoSCOPE sensors (1 μL, 10 min, room temperature), to achieve marker-specific EV capture. As a control experiment, sensors functionalized with IgG isotope control antibodies were used. Relative spectral changes (plasmonic signals) were measured to determine marker-specific EV binding. To measure EV drug occupancy, we used the click probes within sensor-bound vesicles to achieve enzymatic amplification. Specifically, we utilized the probes' click handles (TCO) to recruit tetrazine-conjugated horseradish peroxidase (HRP), which catalyzed in situ, enzymatic conversion of the soluble substrate (3,3′-diaminobenzidine, DAB) to form local, insoluble polymeric products on labeled vesicles; these insoluble deposits acted as optical products to amplify the plasmonic signals. […] Relative spectral changes were measured to determine probe labeling. […]"}, "EGFR [2]": {"target": "T1, EGFR (Homo sapiens, UniProt P00533, L858R)", "T1 construct": "endogenous in cells; host or cells: H3255 human lung cancer cells", "T1 sequence (P00533 25-1210 L858R)": "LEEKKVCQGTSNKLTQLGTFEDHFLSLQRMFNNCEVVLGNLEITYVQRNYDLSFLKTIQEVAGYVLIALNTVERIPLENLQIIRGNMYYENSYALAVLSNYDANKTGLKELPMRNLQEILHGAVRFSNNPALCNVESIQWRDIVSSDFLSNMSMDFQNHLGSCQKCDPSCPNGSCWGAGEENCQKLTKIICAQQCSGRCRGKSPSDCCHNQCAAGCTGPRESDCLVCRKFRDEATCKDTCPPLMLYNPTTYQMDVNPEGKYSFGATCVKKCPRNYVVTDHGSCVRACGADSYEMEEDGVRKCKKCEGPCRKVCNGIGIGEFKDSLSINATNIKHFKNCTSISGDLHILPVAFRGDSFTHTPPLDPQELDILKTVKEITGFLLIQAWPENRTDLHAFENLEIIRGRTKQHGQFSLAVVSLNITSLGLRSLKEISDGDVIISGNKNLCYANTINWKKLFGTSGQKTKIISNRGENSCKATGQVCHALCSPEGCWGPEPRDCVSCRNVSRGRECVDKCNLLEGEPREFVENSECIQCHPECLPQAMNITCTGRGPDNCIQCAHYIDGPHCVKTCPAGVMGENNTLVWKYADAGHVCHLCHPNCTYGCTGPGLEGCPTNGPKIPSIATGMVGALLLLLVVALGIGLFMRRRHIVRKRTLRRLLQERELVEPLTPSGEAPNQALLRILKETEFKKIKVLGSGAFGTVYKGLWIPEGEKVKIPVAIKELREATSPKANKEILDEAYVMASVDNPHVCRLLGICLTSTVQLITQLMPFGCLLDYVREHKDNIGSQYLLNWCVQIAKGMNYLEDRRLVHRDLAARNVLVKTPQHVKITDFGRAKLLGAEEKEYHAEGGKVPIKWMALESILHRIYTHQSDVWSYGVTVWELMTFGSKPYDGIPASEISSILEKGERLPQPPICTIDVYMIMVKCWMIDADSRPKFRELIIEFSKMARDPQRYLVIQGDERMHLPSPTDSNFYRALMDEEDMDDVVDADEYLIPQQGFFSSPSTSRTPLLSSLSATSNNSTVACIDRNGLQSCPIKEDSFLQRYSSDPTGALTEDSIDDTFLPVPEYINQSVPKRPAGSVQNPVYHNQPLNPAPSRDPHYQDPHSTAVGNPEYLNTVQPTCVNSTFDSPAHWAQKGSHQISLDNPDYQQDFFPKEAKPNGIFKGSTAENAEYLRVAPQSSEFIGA", "test": "Live-cell labeling of H3255 cells by click probes (in-gel fluorescence)", "format": "cell-based", "method": "In-gel fluorescence analysis of cell labeling. Cell pellets were resuspended in Pierce IP lysis buffer (Thermo Scientific) supplemented with protease inhibitor cocktail (Thermo Scientific). After lysis on ice, the lysate was centrifuged at 2000 g, 4° C. for 2 min, and the supernatant was collected and normalized to 1.5 mg/mL with PBS. 40 μL of each sample was first blocked with iodoacetamide (15 mM, Sigma) for 30 min at room temperature in the dark, followed by click reaction with either DBCO-TMR or tetrazine-TMR (25 μM, Click Chemistry Tools) at room temperature for 30 min. The sample was then boiled in LDS sample buffer at 95° C. for 5 min, and resolved by 4-12% SDS-PAGE gel. Finally, the fluorescently labeled proteins were visualized with a ChemiDoc imaging system and subsequently stained with Bio-Safe Coomassie (Bio-Rad)."}}, "note": "Values joined by “and” are separate entries in the source; they are usually repeats but may differ in a detail not shown here. Equal entries are not always repeated."}
{"smiles": "CN(C)C/C=C/C(=O)Nc1cc2c(Nc3ccc(F)c(Cl)c3)ncnc2cc1O[C@H]1CCOC1", "note": "[afatinib, reference compound]", "values": [{"measurement": "GI50", "setting": "H3255 cells", "value": 0.6, "unit": "nM"}]}
{"smiles": "C#Cc1cccc(Nc2ncnc3cc(OCCOC)c(OCCOC)cc23)c1", "note": "[erlotinib]", "values": [{"measurement": "time-dependent change of ξEV", "setting": "EGFR [1]", "value": "increased"}]}
{"smiles": "CN(C)C/C=C/C(=O)Nc1cc2c(Nc3ccc(F)c(Cl)c3)ncnc2cc1OCCCNC(=O)CNC(=O)OC1CC/C=C/CCC1", "note": "(stereo not drawn) [probe A3, (E)-cyclooct-4-en-1-yl (2-((3-((4-((3-chloro-4-fluorophenyl)amino)-6-((E)-4-(dimethylamino)but-2-enamido)quinazolin-7-yl)oxy)propyl)amino)-2-oxoethyl)carbamate]", "values": [{"measurement": "GI50", "setting": "H3255 cells", "value": 1.8, "unit": "nM"}, {"measurement": "signal-to-noise ratio of EGFR labeling among the click probes", "setting": "EGFR [2]; 100 nM probe, with or without afatinib 1 μM", "value": "best signal-to-noise ratio"}, {"measurement": "incubation time to maximal labeling", "setting": "EGFR [2]; probe 100 nM, H3255 cells", "value": 1, "unit": "h"}, {"measurement": "live-cell EGFR labeling efficiency", "setting": "EGFR [2]; probe 100 nM, H3255 cells, 15 min incubation", "value": "> 90% and 90%"}]}
